Biological target: T1, PDE4B (Homo sapiens, UniProt Q07343)
T1 construct: hexa-histidine (His6) (N); made in house
Assay: PDE4 IMAP Assay
Format: biochemical
Details: catalytic domain of PDE4B, fluorescence polarization
From the text: Compounds may be screened for functional potency in in vitro biochemical assays for their ability to inhibit the activity of phosphodiesterase (PDE) enzymes. A commercial PDE assay, Molecular Device's PDE IMAP assay, was modified and utilized to measure the inhibitory activity of compounds on PDE isoforms. The IMAP technology is based on the high affinity binding of phosphate by immobilized metal (MIII) coordination complexes on nanoparticles. This IMAP “binding reagent” complexes with phosphate groups on the nucleotide monophosphates generated in the reaction. Such binding causes a change in the rate of the molecular motion of the nucleotide, and results in an increase in the fluorescence polarization value observed for the fluorescent label attached to the substrate. PDE inhibitors prevent the generation of nucleotide monophosphates and the subsequent increase in polarization value observed for the fluorescent label attached to the substrate. The catalytic domain of PDE4B was fused to an amino-terminus hex-histadine affinity tag and purified. PDE4B enzyme was incubated with compounds for 10 minutes. Fluorescently labeled cyclic AMP substrates were then added to the PDE enzyme mix and incubated for 2 hours at room temperature. IMAP binding reagent was then added to the enzyme mix, incubated for 10-30 minutes and fluorescent polarization of the fluorescently labeled substrate was read either with the Perkin Elmer Viewlux or Molecular Devices Acquest or Analyst. Roflumilast and Rolipram are the positive controls used in the assay.

T1 sequence (Q07343 330-659 limits assumed, species assumed): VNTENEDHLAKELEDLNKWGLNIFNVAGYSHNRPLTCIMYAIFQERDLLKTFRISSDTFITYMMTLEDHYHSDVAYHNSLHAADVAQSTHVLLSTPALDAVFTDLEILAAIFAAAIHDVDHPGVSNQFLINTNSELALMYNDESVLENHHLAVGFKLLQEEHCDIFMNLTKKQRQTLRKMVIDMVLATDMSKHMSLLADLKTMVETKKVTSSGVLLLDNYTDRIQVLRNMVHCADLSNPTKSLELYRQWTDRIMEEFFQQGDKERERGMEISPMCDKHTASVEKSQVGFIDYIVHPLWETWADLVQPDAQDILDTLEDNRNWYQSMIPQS

SMILES | inhibition at 10 µM
COc1ccc(C2=NN(C(=O)c3ccccc3Cl)C(c3cccc(OC)c3OC)C2)cc1OC (centres unmarked) [Example 30, (2-chlorophenyl)(5-(2,3-dimethoxyphenyl)-3-(3,4-dimethoxyphenyl)-4,5-dihydro-1H-pyrazol-1-yl)methanone] | < 50%
COc1ccc(C2CC(c3ccc(OC)c(OC)c3)=NN2S(C)(=O)=O)cc1 (centres unmarked) [Example 14, 3-(3,4-dimethoxyphenyl)-5-(4-methoxyphenyl)-1-(methylsulfonyl)-4,5-dihydro-1H-pyrazole] | < 50%
COc1ccc(C2=NN(S(C)(=O)=O)C(c3c(F)cccc3Cl)C2)cc1OC (centres unmarked) [Example 3, 5-(2-chloro-6-fluorophenyl)-3-(3,4-dimethoxyphenyl)-1-(methylsulfonyl)-4,5-dihydro-1H-pyrazole] | < 50%
COc1ccc(C2=NN(S(C)(=O)=O)C(c3cccs3)C2)cc1OC (centres unmarked) [Example 2, 3-(3,4-dimethoxyphenyl)-1-(methylsulfonyl)-5-(thiophen-2-yl)-4,5-dihydro-1H-pyrazole] | < 50%
COc1ccc2nc(Cl)c(C3CC(c4ccc(OC)c(OC)c4)=NN3C(=O)c3ccccc3Cl)cc2c1 (centres unmarked) [Example 6, (5-(2-chloro-6-methoxyquinolin-3-yl)-3-(3,4-dimethoxyphenyl)-4,5-dihydro-1H-pyrazol-1-yl)(2-chlorophenyl)methanone] | < 50%
COc1ccc(C2=NN(C(=O)c3ccc(Br)o3)C(c3ccccc3F)C2)cc1OC (centres unmarked) [Example 49, (5-bromofuran-2-yl)(3-(3,4-dimethoxyphenyl)-5-(2-fluorophenyl)-4,5-dihydro-1H-pyrazol-1-yl)methanone] | ≥ 50%
COc1ccc(C2=NN(C(=O)c3ccc(Br)o3)C(c3ccc(F)cc3)C2)cc1OC (centres unmarked) [Example 46, (5-bromofuran-2-yl)(3-(3,4-dimethoxyphenyl)-5-(4-fluorophenyl)-4,5-dihydro-1H-pyrazol-1-yl)methanone] | ≥ 50%
COc1ccc(C2=NN(C(=O)c3ccccc3Cl)C(c3ccccc3Cl)C2)cc1OC (centres unmarked) [Example 35, (2-chlorophenyl)(5-(2-chlorophenyl)-3-(3,4-dimethoxyphenyl)-4,5-dihydro-1H-pyrazol-1-yl)methanone] | < 50%
CCC(=O)N1N=C(c2ccc(OC)c(OC)c2)CC1c1ccc(CC)cc1 (centres unmarked) [Example 20, 1-(3-(3,4-dimethoxyphenyl)-5-(4-ethylphenyl)-4,5-dihydro-1H-pyrazol-1-yl)propan-1-one] | < 50%
CCc1ccc(C2CC(c3ccc(OC)c(OC)c3)=NN2S(C)(=O)=O)cc1 (centres unmarked) [Example 12, 3-(3,4-dimethoxyphenyl)-5-(4-ethylphenyl)-1-(methylsulfonyl)-4,5-dihydro-1H-pyrazole] | < 50%
COc1ccc(C2=NN(S(=O)(=O)c3ccccc3)C(c3cccc([N+](=O)[O-])c3)C2)cc1OC (centres unmarked) [Example 53, 3-(3,4-dimethoxyphenyl)-5-(3-nitrophenyl)-1-(phenylsulfonyl)-4,5-dihydro-1H-pyrazole] | < 50%
COc1ccc(C2=NN(S(=O)(=O)c3ccc(C)cc3)C(c3cccc([N+](=O)[O-])c3)C2)cc1OC (centres unmarked) [Example 52, 3-(3,4-dimethoxyphenyl)-5-(3-nitrophenyl)-1-tosyl-4,5-dihydro-1H-pyrazole] | < 50%
COc1ccc(C2=NN(C(=O)c3ccccc3Cl)C(c3ccccc3F)C2)cc1OC (centres unmarked) [Example 34, (2-chlorophenyl)(3-(3,4-dimethoxyphenyl)-5-(2-fluorophenyl)-4,5-dihydro-1H-pyrazol-1-yl)methanone] | ≥ 50%
COc1ccc(OC)c(C2CC(c3ccc(OC)c(OC)c3)=NN2C(=O)c2ccccc2Cl)c1 (centres unmarked) [Example 29, (2-chlorophenyl)(5-(2,5-dimethoxyphenyl)-3-(3,4-dimethoxyphenyl)-4,5-dihydro-1H-pyrazol-1-yl)methanone] | < 50%
COc1ccc(C2=NN(C(=O)CCC(=O)O)C(c3cc4cccc(C)c4nc3Cl)C2)cc1OC (centres unmarked) [Example 5, 4-(5-(2-chloro-8-methylquinolin-3-yl)-3-(3,4-dimethoxyphenyl)-4,5-dihydro-1H-pyrazol-1-yl)-4-oxobutanoic acid] | < 50%

More lines, now with the values ahead:

inhibition at 10 µM | SMILES
< 50% | COc1ccc(OC)c(C2CC(c3ccc(OC)c(OC)c3)=NN2S(=O)(=O)c2ccccc2)c1 (centres unmarked) [Example 88, 5-(2,5-dimethoxyphenyl)-3-(3,4-dimethoxyphenyl)-1-(phenylsulfonyl)-4,5-dihydro-1H-pyrazole]
< 50% | COc1ccc(C2=NN(C(C)=O)C(c3cc4cc(C)ccc4nc3Cl)C2)cc1OC (centres unmarked) [Example 74, 1-(5-(2-chloro-6-methylquinolin-3-yl)-3-(3,4-dimethoxyphenyl)-4,5-dihydro-1H-pyrazol-1-yl)ethanone]
< 50% | COc1ccc(C2=NN(C(C)=O)C(c3cn(-c4ccccc4)nc3-c3ccccc3)C2)cc1OC (centres unmarked) [Example 73, 1-(3-(3,4-dimethoxyphenyl)-5-(1,3-diphenyl-1H-pyrazol-4-yl)-4,5-dihydro-1H-pyrazol-1-yl)ethanone]
< 50% | COc1ccc(C2=NN(C(=O)c3cc(OC)c(OC)c(OC)c3)C(c3ccccc3OC)C2)cc1OC (centres unmarked) [Example 80, (3-(3,4-dimethoxyphenyl)-5-(2-methoxyphenyl)-4,5-dihydro-1H-pyrazol-1-yl)(3,4,5-trimethoxyphenyl)methanone]
< 50% | COc1ccc(C2=NN(C(C)=O)C(c3ccccc3OC)C2)cc1OC (centres unmarked) [Example 105, 1-(3-(3,4-dimethoxyphenyl)-5-(2-methoxyphenyl)-4,5-dihydro-1H-pyrazol-1-yl)ethanone]
< 50% | COc1ccc(C2=NN(C(C)=O)C(c3ccc(OC)c(OC)c3)C2)cc1OC (centres unmarked) [Example 100, 1-(3,5-bis(3,4-dimethoxyphenyl)-4,5-dihydro-1H-pyrazol-1-yl)ethanone]
≥ 50% | COc1ccc(C2=NN(C(=O)c3cc(OC)c(OC)c(OC)c3)C(c3ccccc3F)C2)cc1OC (centres unmarked) [Example 79, (3-(3,4-dimethoxyphenyl)-5-(2-fluorophenyl)-4,5-dihydro-1H-pyrazol-1-yl)(3,4,5-trimethoxyphenyl)methanone]
< 50% | COc1ccc(C2=NN(C(=O)c3ccc(Br)o3)C(c3cccc(OC)c3OC)C2)cc1OC (centres unmarked) [Example 84, (5-bromofuran-2-yl)(5-(2,3-dimethoxyphenyl)-3-(3,4-dimethoxyphenyl)-4,5-dihydro-1H-pyrazol-1-yl)methanone]
< 50% | COc1ccc(C2=NN(C(=O)c3cc(OC)c(OC)c(OC)c3)C(c3ccc(OC)c(OC)c3)C2)cc1OC (centres unmarked) [Example 78, (3,5-bis(3,4-dimethoxyphenyl)-4,5-dihydro-1H-pyrazol-1-yl)(3,4,5-trimethoxyphenyl)methanone]
< 50% | COc1ccc(C2=NN(C(=O)CCC(=O)O)C(c3cccc(OC)c3OC)C2)cc1OC (centres unmarked) [Example 69, 4-(5-(2,3-dimethoxyphenyl)-3-(3,4-dimethoxyphenyl)-4,5-dihydro-1H-pyrazol-1-yl)-4-oxobutanoic acid]
< 50% | COc1ccc(C2=NN(S(=O)(=O)c3ccccc3)C(c3ccccc3)C2)cc1OC (centres unmarked) [Example 63, 3-(3,4-dimethoxyphenyl)-5-phenyl-1-(phenylsulfonyl)-4,5-dihydro-1H-pyrazole]
< 50% | COc1ccc(C2=NN(S(=O)(=O)c3ccc(C)cc3)C(c3ccc(N(C)C)cc3)C2)cc1OC (centres unmarked) [Example 85, 4-(3-(3,4-dimethoxyphenyl)-1-tosyl-4,5-dihydro-1H-pyrazol-5-yl)-N,N-dimethylaniline]
< 50% | COc1ccc(OC)c(C2CC(c3ccc(OC)c(OC)c3)=NN2S(=O)(=O)c2ccc(C)cc2)c1 (centres unmarked) [Example 89, 5-(2,5-dimethoxyphenyl)-3-(3,4-dimethoxyphenyl)-1-tosyl-4,5-dihydro-1H-pyrazole]
< 50% | COc1ccc(C2CC(c3ccc(OC)c(OC)c3)=NN2S(=O)(=O)c2ccc(C)cc2)cc1 (centres unmarked) [Example 92, 3-(3,4-dimethoxyphenyl)-5-(4-methoxyphenyl)-1-tosyl-4,5-dihydro-1H-pyrazole]
< 50% | COc1ccc(C2=NN(S(=O)(=O)c3ccccc3)C(c3ccc(F)cc3)C2)cc1OC (centres unmarked) [Example 54, 3-(3,4-dimethoxyphenyl)-5-(4-fluorophenyl)-1-(phenylsulfonyl)-4,5-dihydro-1H-pyrazole]
< 50% | COc1ccc(C2=NN(S(=O)(=O)c3ccccc3)C(c3ccc(C)cc3)C2)cc1OC (centres unmarked) [Example 56, 3-(3,4-dimethoxyphenyl)-1-(phenylsulfonyl)-5-p-tolyl-4,5-dihydro-1H-pyrazole]
< 50% | COc1ccc(C2=NN(C(=O)CCC(=O)O)C(c3ccccc3)C2)cc1OC (centres unmarked) [Example 99, 4-(3-(3,4-dimethoxyphenyl)-5-phenyl-4,5-dihydro-1H-pyrazol-1-yl)-4-oxobutanoic acid]
